Measurements: patent US20120004282A1, “RNA Interference Mediated Inhibition of the Intercellular Adhesion Molecule 1 (ICAM-1) Gene Expression Using Short Interfering Nucleic Acid (siNA)” (Merck Sharp & Dohme Corp,, priority 2009, published 2012)
[invAb] = inverted abasic unit; d = 2'-deoxy (DNA); m = 2'-O-methyl; r = 2'-OH (RNA); f = 2'-fluoro

system: ICAM-1 mRNA; assay: ICAM-1 mRNA knock-down in transfected Calu-1 cells (Taqman RT-PCR); type: cell-based, human; details: Calu-1 cells, 10 nM siNA, 24 hrs post-transfection, mean ± S.D., relative to non-targeting control
Method: Calu-1 (human; ATCC cat# HTB-54): Cells were cultured at 37° C. in the presence of 5% CO2 and grown in McCoy's 5a medium supplemented with fetal bovine serum at a final concentration of 10% and 100 μg/mL of streptomycin and 100 U/mL penicillin.
All transfections were performed using RNAiMax (Invitrogen Cat# 13778-150) as per the manufacturer's instructions.
Calu-1 cells were plated in all wells of a tissue-culture treated, 96-well plate at final counts of 5,000 cells/well in 100 μL of appropriate culture media. Cells were cultured for 24 hours after plating at 37° C. in the presence of 5% CO2.
After 24 hours, complexes containing siNA and RNAiMax were created as follows. A solution of RNAiMax diluted 33-fold in OPTI-MEM was prepared. In parallel, solutions of the siNAs for testing were prepared to a final concentration of 120 nM in OPTI-MEM. After incubation of RNAiMax/OPTI-MEM solution at room temperature for 5 min, an equal volume of the siNA solution and the RNAiMax solution were added together for each of the siNAs. […] This solution was incubated at room temperature for 20 minutes. After incubation, 20 uL of the solution was added to each of the relevant wells. The final concentration of siNA in each well was 10 nM and the final volume of RNAiMax in each well was 0.3 uL.
The time of incubation with the RNAiMax-siNA complexes was 24 hours, unless otherwise indicated. There was no change in media between the transfection and harvesting of the cells unless otherwise indicated.
Dose response curves were carried out in a similar fashion in 96-well plates, while maintaining a constant amount of RNAiMax in each transfection.
RNA was extracted from a 96-well plate using the TaqMan® Gene Expression Cells-to-CT™ Kit (Cat# 4399002) with a modified protocol. Briefly, a 60 uL (1 plate) or 110 uL (2 plates) of the Lysis Solution with DNase I was dispensed into each well of the Lysis Buffer Plate (twin.tec full skirt plate). The lysis buffer and stop plates were stored at 4° C. until the cells were washed.
The plate was spun at 1100 rpm for 5 minutes. The culture medium was aspirated and discarded from the wells of the culture plate. The lysis was performed automatically using a BioMek FX instrument and method. After the Biomek method was completed, the lysis plate was incubated for 2 min. at room temperature. The lysis plate can be stored for 2 hours at 4° C., or at −20° C. or −80° C. for two months.
Each well of the reverse transcription plate required 10 uL of 2× reverse transcriptase Buffer, 1 uL of 20× reverse transcription enzyme and 2 uL of nuclease-free water. The reverse transcription master mix was prepared by mixing 2× reverse transcription buffer, 20× reverse transcription enzyme mix, and nuclease-free water. 13 uL of the reverse transcription master mix was dispensed into each well of the reverse transcription plate (semi-skirted). A separate reverse transcription plate was prepared for each cell plate. The plate was loaded onto a Biomek NX or Biomek FX Dual-96 and the Biomek method was run. The program is programmed to automatically added 7 uL of lysate from the cell lysis procedure described above into each well of the reverse transcription plate. The plate is sealed and spun on a centrifuge (1000 rpm for 30 seconds) to settle the contents to the bottom of the reverse transcription plate. The plate is placed in a thermocycler at 37° C. for 60 min, 95° C. for 5 min, and 4° C. until the plate is removed from the thermocycler. Upon removal, if not used immediately, the plate was frozen at −20° C.
A series of probes and primers were used to detect the various mRNA transcripts of the genes of ICAM-1 and ICAM-2 in human cell lines (see Table 2). All the Taqman probes and primers for the experiments here-in described were supplied as pre-validated sets by Applied Biosystems, Inc., (see Table 2). The assays were performed on an ABI 7900 instrument, according to the manufacturer's instructions. […]

Substance | % KD Human [%]
29283-DC: siNA duplex, ICAM-1 target site 1811 (h); sense B cucAGcAcGuAccucuAuA TTB; antisense UAUAGAGGuAcGuGcuGAGUU (sense CUCAGCACGUACCUCUAUATT; antisense UAUAGAGGUACGUGCUGAGUU; sense: DNA at AGT, 2'-fluoro at CU, [invAb] at 5' end, 3' end, backbone not given here; antisense: sugars from the 5' end rrrmmmmmfmfmfmffmmmmm, backbone not given here) | 63 ± 8
48715-DC: siNA duplex, ICAM-1 target site 1828 (m); sense B AcuuGuAGccucAGAGcuA TTB; antisense UAGcucuGAGGcuAcAAGuUU (sense ACUUGUAGCCUCAGAGCUATT; antisense UAGCUCUGAGGCUACAAGUUU; sense: DNA at AGT, 2'-fluoro at CU, [invAb] at 5' end, 3' end, backbone not given here; antisense: sugars from the 5' end rrrffffmmmmffmfmmmfmm, backbone not given here) | 14 ± 12
48726-DC: siNA duplex, ICAM-1 target site 1217 (h); sense B GAGAcAcuGcAGAcAGuGA TTB; antisense UCAcuGucuGcAGuGucucUU (sense GAGACACUGCAGACAGUGATT; antisense UCACUGUCUGCAGUGUCUCUU; sense: DNA at AGT, 2'-fluoro at CU, [invAb] at 5' end, 3' end, backbone not given here; antisense: sugars from the 5' end rrrffmfffmfmmfmffffmm, backbone not given here) | 64 ± 16
48712-DC: siNA duplex, ICAM-1 target site 1579 (m); sense B uGAuGGcAGccucuuAuGu TTB; antisense ACAuAAGAGGcuGccAucAUU (sense UGAUGGCAGCCUCUUAUGUTT; antisense ACAUAAGAGGCUGCCAUCAUU; sense: DNA at AGT, 2'-fluoro at CU, [invAb] at 5' end, 3' end, backbone not given here; antisense: sugars from the 5' end rrrfmmmmmmffmffmffmmm, backbone not given here) | 34 ± 27
48704-DC: siNA duplex, ICAM-1 target site 395 (m); sense B cGuGuAuucGuuuccGGAG TTB; antisense CUCcGGAAAcGAAuAcAcGUU (sense CGUGUAUUCGUUUCCGGAGTT; antisense CUCCGGAAACGAAUACACGUU; sense: DNA at AGT, 2'-fluoro at CU, [invAb] at 5' end, 3' end, backbone not given here; antisense: sugars from the 5' end rrrfmmmmmfmmmfmfmfmmm, backbone not given here) | 33 ± 22
48699-DC: siNA duplex, ICAM-1 target site 668 (m); sense B GcuGGcAuuGuucucuAAu TTB; antisense AUUAGAGAAcAAuGccAGcUU (sense GCUGGCAUUGUUCUCUAAUTT; antisense AUUAGAGAACAAUGCCAGCUU; sense: DNA at AGT, 2'-fluoro at CU, [invAb] at 5' end, 3' end, backbone not given here; antisense: sugars from the 5' end rrrmmmmmmfmmfmffmmfmm, backbone not given here) | 25 ± 9
48716-DC: siNA duplex, ICAM-1 target site 368 (m); sense B GcAGucGuccGcuuccGcu TTB; antisense AGCGGAAGcGGAcGAcuGcUU (sense GCAGUCGUCCGCUUCCGCUTT; antisense AGCGGAAGCGGACGACUGCUU; sense: DNA at AGT, 2'-fluoro at CU, [invAb] at 5' end, 3' end, backbone not given here; antisense: sugars from the 5' end rrrmmmmmfmmmfmmffmfmm, backbone not given here) | 22 ± 6
48713-DC: siNA duplex, ICAM-1 target site 709 (m); sense B GGAcuuucGAucuuccAGc TTB; antisense GCUGGAAGAucGAAAGuccUU (sense GGACUUUCGAUCUUCCAGCTT; antisense GCUGGAAGAUCGAAAGUCCUU; sense: DNA at AGT, 2'-fluoro at CU, [invAb] at 5' end, 3' end, backbone not given here; antisense: sugars from the 5' end rrrmmmmmmffmmmmmfffmm, backbone not given here) | 36 ± 17
48718-DC: siNA duplex, ICAM-1 target site 1938 (h); sense B cucuuccucGGccuucccA TTB; antisense UGGGAAGGccGAGGAAGAGUU (sense CUCUUCCUCGGCCUUCCCATT; antisense UGGGAAGGCCGAGGAAGAGUU; sense: sugars from the 5' end f9 d2 f7 d3, [invAb] at 5' end, 3' end, backbone not given here; antisense: sugars from the 5' end r4 m4 f2 m11, backbone not given here) | 19 ± 11
29291-DC: siNA duplex, ICAM-1 target site 2120 (h); sense B GAucuGuAGucAcAuGAcu TTB; antisense AGUcAuGuGAcuAcAGAucUU (sense GAUCUGUAGUCACAUGACUTT; antisense AGUCAUGUGACUACAGAUCUU; sense: DNA at AGT, 2'-fluoro at CU, [invAb] at 5' end, 3' end, backbone not given here; antisense: sugars from the 5' end rrrfmfmfmmffmfmmmffmm, backbone not given here) | 84 ± 7
29292-DC: siNA duplex, ICAM-1 target site 863 (h); sense B GccAAuuucucGuGccGcA TTB; antisense UGCGGcAcGAGAAAuuGGcUU (sense GCCAAUUUCUCGUGCCGCATT; antisense UGCGGCACGAGAAAUUGGCUU; sense: DNA at AGT, 2'-fluoro at CU, [invAb] at 5' end, 3' end, backbone not given here; antisense: sugars from the 5' end rrrmmfmfmmmmmmffmmfmm, backbone not given here) | 76 ± 3
48717-DC: siNA duplex, ICAM-1 target site 911 (m); sense B GGuGAcuGAGGAGuucGAc TTB; antisense GUCGAAcuccucAGucAccUU (sense GGUGACUGAGGAGUUCGACTT; antisense GUCGAACUCCUCAGUCACCUU; sense: DNA at AGT, 2'-fluoro at CU, [invAb] at 5' end, 3' end, backbone not given here; antisense: sugars from the 5' end rrrmmmffffffmmffmffmm, backbone not given here) | −9 ± 17
48706-DC: siNA duplex, ICAM-1 target site 250 (m); sense B GcuuGGAGAcucAGuGGcu TTB; antisense AGCcAcuGAGucuccAAGcUU (sense GCUUGGAGACUCAGUGGCUTT; antisense AGCCACUGAGUCUCCAAGCUU; sense: DNA at AGT, 2'-fluoro at CU, [invAb] at 5' end, 3' end, backbone not given here; antisense: sugars from the 5' end rrrfmffmmmfffffmmmfmm, backbone not given here) | 23 ± 31
